Assay results reported in ChEMBL document CHEMBL4028801, “A multifactorial approach to hepatobiliary transporter assessment enables improved therapeutic compound development” (Toxicol Sci, 2013).

What was measured:
[1] = target: T1, ATP-binding cassette sub-family C member 4 (Homo sapiens, UniProt O15439); assay: Inhibition of human MRP4 overexpressed in Sf9 cell membrane vesicles assessed as uptake of [3H]-estradiol-17beta-D-glucuronide in presence of ATP and GSH measured after 20 mins by membrane vesicle transport assay; assay type: ADME, cell-based
T1 sequence (O15439 whole entry): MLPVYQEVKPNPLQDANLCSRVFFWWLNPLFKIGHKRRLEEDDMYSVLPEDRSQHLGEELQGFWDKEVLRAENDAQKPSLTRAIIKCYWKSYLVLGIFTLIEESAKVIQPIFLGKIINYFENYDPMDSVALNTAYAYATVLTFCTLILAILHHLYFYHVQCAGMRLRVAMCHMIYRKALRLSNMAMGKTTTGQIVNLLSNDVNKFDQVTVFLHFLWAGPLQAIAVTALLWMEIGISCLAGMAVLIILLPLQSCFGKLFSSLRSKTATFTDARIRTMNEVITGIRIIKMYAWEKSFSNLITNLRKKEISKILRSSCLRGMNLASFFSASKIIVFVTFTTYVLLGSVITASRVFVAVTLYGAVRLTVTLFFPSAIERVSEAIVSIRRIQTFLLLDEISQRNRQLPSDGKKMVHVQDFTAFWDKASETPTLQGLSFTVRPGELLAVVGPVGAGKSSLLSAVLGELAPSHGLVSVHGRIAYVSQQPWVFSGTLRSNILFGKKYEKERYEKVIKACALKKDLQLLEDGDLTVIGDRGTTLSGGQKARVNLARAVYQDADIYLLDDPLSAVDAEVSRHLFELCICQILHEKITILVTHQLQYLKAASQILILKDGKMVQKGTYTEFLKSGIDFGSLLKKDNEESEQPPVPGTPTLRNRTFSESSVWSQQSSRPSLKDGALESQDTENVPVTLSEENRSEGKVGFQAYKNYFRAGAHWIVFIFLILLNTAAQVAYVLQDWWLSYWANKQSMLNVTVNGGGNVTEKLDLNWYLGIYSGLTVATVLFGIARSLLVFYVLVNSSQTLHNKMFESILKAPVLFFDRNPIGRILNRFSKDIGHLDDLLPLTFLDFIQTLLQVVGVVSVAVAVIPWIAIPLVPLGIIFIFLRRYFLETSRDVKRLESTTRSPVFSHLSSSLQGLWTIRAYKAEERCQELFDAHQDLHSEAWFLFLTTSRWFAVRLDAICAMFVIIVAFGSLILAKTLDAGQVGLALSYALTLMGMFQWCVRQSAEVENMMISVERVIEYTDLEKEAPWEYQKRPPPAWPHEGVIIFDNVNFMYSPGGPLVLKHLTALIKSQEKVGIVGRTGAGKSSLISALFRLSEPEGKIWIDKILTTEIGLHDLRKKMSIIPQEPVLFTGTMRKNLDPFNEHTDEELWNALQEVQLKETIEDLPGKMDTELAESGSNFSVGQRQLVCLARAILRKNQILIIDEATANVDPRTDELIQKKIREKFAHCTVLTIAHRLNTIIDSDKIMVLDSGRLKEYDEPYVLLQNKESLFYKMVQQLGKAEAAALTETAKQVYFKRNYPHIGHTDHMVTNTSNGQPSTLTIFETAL

[2] = Drug concentration at steady state in human at 10 mg, po QD after 24 hrs; settings: in vivo
Bile salt export pump = Bile salt export pump (Homo sapiens, UniProt O95342); assay: Inhibition of human BSEP overexpressed in Sf9 cell membrane vesicles assessed as uptake of [3H]-taurocholate in presence of ATP measured after 15 to 20 mins by membrane vesicle transport assay; assay type: ADME, cell-based
[3] = target: ATP-binding cassette sub-family C member 3 (Homo sapiens, UniProt O15438); assay: Inhibition of human MRP3 overexpressed in Sf9 insect cell membrane vesicles assessed as uptake of [3H]-estradiol-17beta-D-glucuronide in presence of ATP and GSH measured after 10 mins by membrane vesicle transport assay; assay type: ADME, cell-based
clinical = settings: human, in vivo, po, 10 mg
[4] = target: ATP-binding cassette sub-family C member 2 (Homo sapiens, UniProt Q92887); assay: Inhibition of human MRP2 overexpressed in Sf9 cell membrane vesicles assessed as uptake of [3H]-estradiol-17beta-D-glucuronide in presence of ATP and GSH measured after 20 mins by membrane vesicle transport assay
[5] = Drug concentration at steady state in human at 5 to 10 mg, po QD after 24 hrs; assay type: ADME, organism-based; settings: in vivo, read-out: Css
[6] = Ratio of drug concentration at steady state in human at 5 to 10 mg, po QD after 24 hrs to IC50 for human MRP4 overexpressed in Sf9 insect cells; assay type: ADME, organism-based; settings: in vivo
[7] = Ratio of drug concentration at steady state in human at 5 to 10 mg, po QD after 24 hrs to IC50 for human BSEP overexpressed in Sf9 insect cells; assay type: ADME, organism-based; settings: in vivo
[8] = AUC in human at 5 to 10 mg, po QD after 24 hrs; assay type: ADME, organism-based; settings: in vivo
[9] = Ratio of drug concentration at steady state in human at 20 to 60 mg, po QD after 24 hrs to IC50 for human BSEP overexpressed in Sf9 insect cells; assay type: ADME, organism-based; settings: in vivo
[10] = Ratio of drug concentration at steady state in human at 20 to 60 mg, po QD after 24 hrs to IC50 for human MRP4 overexpressed in Sf9 insect cells; assay type: ADME, organism-based; settings: in vivo
[11] = Drug concentration at steady state in human at 20 to 60 mg, po QD after 24 hrs; assay type: ADME, organism-based; settings: in vivo, read-out: Css
[12] = AUC in human at 20 to 60 mg, po QD after 24 hrs; assay type: ADME, organism-based; settings: in vivo
[13] = Drug concentration at steady state in human at 5 to 30 mg, po QD after 24 hrs; assay type: ADME, organism-based; settings: in vivo, read-out: Css
[14] = AUC in human at 5 to 30 mg, po QD after 24 hrs; assay type: ADME, organism-based; settings: in vivo
[15] = AUC in human at 1% applied topically BID after 12 hrs; assay type: ADME; parameters: time < 12 hr; settings: topical or ocular
[16] = Drug concentration in human at steady state at 1% applied topically BID after 12 hrs; assay type: ADME; settings: topical or ocular, read-out: Css
[17] = Ratio of drug concentration at steady state at 1% applied topically BID after 12 hrs to IC50 for human BSEP overexpressed in Sf9 insect cells; assay type: ADME; settings: topical_or_ocular
[18] = AUC in human at 0.1 to 1 mg, po QD after 24 hrs; assay type: ADME, organism-based; settings: in vivo
[19] = Ratio of drug concentration at steady state in human at 0.1 to 1 mg, po QD after 24 hrs to IC50 for human MRP2 overexpressed in Sf9 insect cells; assay type: ADME, organism-based; settings: in vivo
[20] = Drug concentration at steady state in human at 0.1 to 1 mg, po QD after 24 hrs; assay type: ADME, organism-based; settings: in vivo, read-out: Css
[21] = Ratio of drug concentration at steady state in human at 0.1 to 1 mg, po QD after 24 hrs to IC50 for human BSEP overexpressed in Sf9 insect cells; assay type: ADME, organism-based; settings: in vivo

Chain of ATP-binding cassette sub-family C member 2 (Q92887 whole entry): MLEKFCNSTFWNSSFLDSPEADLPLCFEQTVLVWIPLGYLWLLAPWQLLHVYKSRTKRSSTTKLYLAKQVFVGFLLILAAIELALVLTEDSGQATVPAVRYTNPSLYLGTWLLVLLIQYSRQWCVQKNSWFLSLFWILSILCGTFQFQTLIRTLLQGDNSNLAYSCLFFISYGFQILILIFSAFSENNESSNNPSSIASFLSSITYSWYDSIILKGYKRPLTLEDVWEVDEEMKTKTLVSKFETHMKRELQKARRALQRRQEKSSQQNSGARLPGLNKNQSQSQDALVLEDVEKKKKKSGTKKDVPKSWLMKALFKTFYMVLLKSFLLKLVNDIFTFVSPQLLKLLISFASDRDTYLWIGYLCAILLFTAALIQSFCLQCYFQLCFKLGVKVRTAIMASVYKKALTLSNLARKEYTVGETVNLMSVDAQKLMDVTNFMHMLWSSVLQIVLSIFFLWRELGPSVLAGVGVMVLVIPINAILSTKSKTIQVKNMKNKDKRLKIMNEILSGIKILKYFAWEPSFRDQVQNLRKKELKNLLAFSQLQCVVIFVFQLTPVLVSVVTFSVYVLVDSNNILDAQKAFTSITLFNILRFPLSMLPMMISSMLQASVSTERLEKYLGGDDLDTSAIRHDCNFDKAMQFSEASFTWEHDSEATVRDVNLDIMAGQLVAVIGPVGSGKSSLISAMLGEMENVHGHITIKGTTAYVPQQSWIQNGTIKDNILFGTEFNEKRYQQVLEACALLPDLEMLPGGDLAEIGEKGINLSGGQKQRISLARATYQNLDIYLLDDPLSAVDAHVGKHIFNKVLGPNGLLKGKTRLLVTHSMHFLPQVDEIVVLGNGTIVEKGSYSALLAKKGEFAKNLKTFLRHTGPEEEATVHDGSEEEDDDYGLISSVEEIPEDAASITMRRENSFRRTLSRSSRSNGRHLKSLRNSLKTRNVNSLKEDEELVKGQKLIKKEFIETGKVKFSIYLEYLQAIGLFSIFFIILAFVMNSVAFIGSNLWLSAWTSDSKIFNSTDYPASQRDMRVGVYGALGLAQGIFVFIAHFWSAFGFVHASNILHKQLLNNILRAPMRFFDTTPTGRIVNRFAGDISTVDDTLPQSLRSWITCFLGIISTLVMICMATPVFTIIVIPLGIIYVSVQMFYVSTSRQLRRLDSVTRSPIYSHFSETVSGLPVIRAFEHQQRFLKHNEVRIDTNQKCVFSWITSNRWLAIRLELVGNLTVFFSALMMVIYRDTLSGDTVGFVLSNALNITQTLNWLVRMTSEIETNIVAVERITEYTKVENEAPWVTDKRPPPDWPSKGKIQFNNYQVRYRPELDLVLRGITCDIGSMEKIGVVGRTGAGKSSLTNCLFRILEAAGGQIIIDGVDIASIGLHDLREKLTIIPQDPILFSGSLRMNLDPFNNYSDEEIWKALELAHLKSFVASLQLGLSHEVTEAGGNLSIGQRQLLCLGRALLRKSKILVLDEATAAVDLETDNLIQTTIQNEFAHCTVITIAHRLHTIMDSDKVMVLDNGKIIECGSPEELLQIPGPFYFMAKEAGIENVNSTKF
Chain of ATP-binding cassette sub-family C member 3 (O15438 whole entry): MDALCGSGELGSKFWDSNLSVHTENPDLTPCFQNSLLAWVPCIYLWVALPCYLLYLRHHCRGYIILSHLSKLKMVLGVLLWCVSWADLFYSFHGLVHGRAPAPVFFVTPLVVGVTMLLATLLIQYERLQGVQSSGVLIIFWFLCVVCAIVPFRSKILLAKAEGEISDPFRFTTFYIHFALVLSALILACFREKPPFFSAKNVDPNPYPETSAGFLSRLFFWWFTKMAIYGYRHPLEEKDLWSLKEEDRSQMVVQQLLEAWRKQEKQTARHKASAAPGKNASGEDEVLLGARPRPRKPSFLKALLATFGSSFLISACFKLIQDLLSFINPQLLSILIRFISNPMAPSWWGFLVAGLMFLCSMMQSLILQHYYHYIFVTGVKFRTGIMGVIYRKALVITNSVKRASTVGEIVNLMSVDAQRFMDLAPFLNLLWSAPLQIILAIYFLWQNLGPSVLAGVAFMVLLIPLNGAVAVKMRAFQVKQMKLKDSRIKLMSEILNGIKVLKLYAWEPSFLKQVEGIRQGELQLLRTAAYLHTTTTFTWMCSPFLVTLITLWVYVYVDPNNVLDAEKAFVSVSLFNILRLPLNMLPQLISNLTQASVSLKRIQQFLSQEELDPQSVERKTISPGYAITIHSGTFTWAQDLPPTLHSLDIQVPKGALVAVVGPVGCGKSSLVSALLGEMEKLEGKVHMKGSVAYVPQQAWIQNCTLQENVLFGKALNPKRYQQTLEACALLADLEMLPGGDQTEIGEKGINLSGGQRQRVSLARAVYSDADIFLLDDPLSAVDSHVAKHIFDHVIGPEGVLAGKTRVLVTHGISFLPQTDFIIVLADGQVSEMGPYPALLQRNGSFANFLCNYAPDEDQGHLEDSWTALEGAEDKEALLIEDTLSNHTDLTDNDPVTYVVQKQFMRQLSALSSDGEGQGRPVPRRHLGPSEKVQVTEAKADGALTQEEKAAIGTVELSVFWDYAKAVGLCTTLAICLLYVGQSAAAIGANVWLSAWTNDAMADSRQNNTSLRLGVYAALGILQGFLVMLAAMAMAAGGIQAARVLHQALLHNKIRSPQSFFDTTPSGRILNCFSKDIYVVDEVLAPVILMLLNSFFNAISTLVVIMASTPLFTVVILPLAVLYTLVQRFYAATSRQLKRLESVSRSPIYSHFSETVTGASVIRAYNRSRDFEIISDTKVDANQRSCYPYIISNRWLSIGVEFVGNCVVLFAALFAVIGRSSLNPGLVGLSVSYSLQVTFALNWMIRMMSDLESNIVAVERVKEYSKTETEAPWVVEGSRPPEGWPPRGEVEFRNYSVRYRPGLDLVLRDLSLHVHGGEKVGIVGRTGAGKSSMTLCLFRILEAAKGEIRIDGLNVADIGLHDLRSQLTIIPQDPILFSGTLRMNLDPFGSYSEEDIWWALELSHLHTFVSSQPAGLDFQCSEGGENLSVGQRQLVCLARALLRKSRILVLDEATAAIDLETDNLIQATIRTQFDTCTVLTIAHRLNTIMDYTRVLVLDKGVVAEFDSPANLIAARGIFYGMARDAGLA
Chain of Bile salt export pump (O95342 whole entry): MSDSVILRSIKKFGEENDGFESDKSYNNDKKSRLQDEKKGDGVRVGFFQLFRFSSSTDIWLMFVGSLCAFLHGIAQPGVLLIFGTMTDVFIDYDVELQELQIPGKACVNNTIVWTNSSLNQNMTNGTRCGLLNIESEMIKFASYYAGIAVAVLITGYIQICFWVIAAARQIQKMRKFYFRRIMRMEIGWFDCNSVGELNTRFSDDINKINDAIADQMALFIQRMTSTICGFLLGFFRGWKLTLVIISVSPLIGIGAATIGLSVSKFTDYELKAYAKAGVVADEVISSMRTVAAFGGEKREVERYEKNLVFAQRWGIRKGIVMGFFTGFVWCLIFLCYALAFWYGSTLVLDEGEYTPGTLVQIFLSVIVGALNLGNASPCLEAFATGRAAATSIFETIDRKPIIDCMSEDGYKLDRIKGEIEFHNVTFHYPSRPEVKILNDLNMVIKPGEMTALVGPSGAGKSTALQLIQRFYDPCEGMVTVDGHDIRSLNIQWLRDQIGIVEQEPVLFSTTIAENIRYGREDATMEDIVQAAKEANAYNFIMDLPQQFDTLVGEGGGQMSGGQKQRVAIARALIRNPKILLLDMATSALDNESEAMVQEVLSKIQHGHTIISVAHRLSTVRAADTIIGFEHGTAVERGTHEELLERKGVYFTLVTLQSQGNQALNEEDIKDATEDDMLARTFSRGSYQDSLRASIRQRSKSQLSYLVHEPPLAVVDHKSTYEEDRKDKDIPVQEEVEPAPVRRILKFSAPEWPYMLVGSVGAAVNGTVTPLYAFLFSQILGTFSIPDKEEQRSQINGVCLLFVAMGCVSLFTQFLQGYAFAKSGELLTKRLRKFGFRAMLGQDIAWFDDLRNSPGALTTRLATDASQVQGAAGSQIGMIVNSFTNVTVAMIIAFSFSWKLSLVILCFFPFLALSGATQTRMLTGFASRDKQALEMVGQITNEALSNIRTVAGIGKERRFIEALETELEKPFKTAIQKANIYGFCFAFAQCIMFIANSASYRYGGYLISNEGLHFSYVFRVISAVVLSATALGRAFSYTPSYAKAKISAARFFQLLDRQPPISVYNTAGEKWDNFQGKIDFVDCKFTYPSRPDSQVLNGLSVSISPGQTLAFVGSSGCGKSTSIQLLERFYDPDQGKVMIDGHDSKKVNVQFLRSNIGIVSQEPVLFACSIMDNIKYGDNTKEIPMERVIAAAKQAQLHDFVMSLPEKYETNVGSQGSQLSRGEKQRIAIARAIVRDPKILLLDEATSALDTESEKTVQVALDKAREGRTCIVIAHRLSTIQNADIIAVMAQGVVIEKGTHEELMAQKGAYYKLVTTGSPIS

SMILES | IC50 [1] [µM] | IC50 (Bile salt export pump) [µM] | IC50 [3] [µM] | IC50 [4] [µM] | further results
CCOC(=O)N1CCC(=C2c3ccc(Cl)cc3CCc3cccnc32)CC1 [LORATADINE] | > 133 | 12 | > 133 | > 133 | concentration at 24 h [2]: 1 nM; AUC at 24 h (clinical): 0.029 µM·h
CC(=O)O[C@]1(C(C)=O)CC[C@H]2[C@@H]3C[C@H](C)C4=CC(=O)CC[C@]4(C)[C@H]3CC[C@@]21C [MEDROXYPROGESTERONE ACETATE] | 22.5 | 15.7 | > 133 | > 133 | concentration at 24 h [5]: 1 nM; Ratio [6]: 0; Ratio [7]: 0.00004; AUC at 24 h [8]: 0.016 µM·h
COC(=O)C1=C(C)NC(C)=C(C(=O)OCC(C)C)C1c1ccccc1[N+](=O)[O-] (stereo unspecified) [NISOLDIPINE] | 16.5 | 33 | > 133 | > 133 | Ratio [9]: 0.00017; Ratio [10]: 0; concentration at 24 h [11]: 6 nM; AUC at 24 h [12]: 0.134 µM·h
CCN(CC)CC#CCOC(=O)C(O)(c1ccccc1)C1CCCCC1 (stereo unspecified) [OXYBUTYNIN] | > 133 | – | > 133 | > 133 | concentration at 24 h [13]: 2 nM; AUC at 24 h [14]: 0.039 µM·h
CC[C@@H]1/C=C(\C)C[C@H](C)C[C@H](OC)[C@H]2O[C@@](O)(C(=O)C(=O)N3CCCC[C@H]3C(=O)O[C@H](/C(C)=C/[C@@H]3CC[C@H](Cl)[C@H](OC)C3)[C@H](C)[C@@H](O)CC1=O)[C@H](C)C[C@@H]2OC [PIMECROLIMUS] | > 133 | 10 | > 133 | > 133 | AUC at 12 h [15]: 0.023 µM·h; concentration at 12 h [16]: 2 nM; Ratio [17]: 0.00019
COC(=O)[C@H]1[C@H]2C[C@@H]3c4[nH]c5cc(OC)ccc5c4CCN3C[C@H]2C[C@@H](OC(=O)c2cc(OC)c(OC)c(OC)c2)[C@@H]1OC [RESERPINE] | > 133 | – | > 133 | 68.4 | AUC at 24 h [18]: 0.014 µM·h; Ratio [19]: 0; concentration at 24 h [20]: 1 nM; Ratio [21]: 0.00007
